According to PMC4813465, “Selective Inhibition of the Mitochondrial Permeability Transition Pore Protects against Neurodegeneration in Experimental Multiple Sclerosis” (The Journal of Biological Chemistry, 2015):

Assays:
[1] = tested on: mitochondria of rat cortical neurons and isolated liver mitochondria; test: Mitochondrial functional parameters (membrane potential, oxygen consumption, ATP production) in cultured rat neurons and isolated mitochondria; type: cell-based
Method: Oxygen consumption was measured using Oroboros Oxygraph-2K as described previously ([62]). Prior to the assay, the Oxygraph chambers were calibrated with Miro5 buffer (0.5 mM EGTA, 3 mM MgCl2·6H2O, 60 mM potassium lactobionate, 20 mM taurine, 10 mM KH2PO4, 20 mM HEPES, 110 mM sucrose, 1 g/liter BSA (essentially fatty acid-free)). Isolated mitochondria were suspended in Miro5 (at 100–200 μg/ml) and loaded into the chamber together with substrates (malate, 2 mM; glutamate, 10 mM), and the O2 flow signal was allowed to stabilize to the basal respiration rate (∼10 min). […] Data were analyzed by subtracting the antimycin A respiration rate to give mitochondrial specific O2 flow and were then expressed as a percentage of the basal O2 flow.
Rat cortical neurons, cultured for 8–9 days, were incubated for 40 min at 37 °C with the cell-permeant cationic dye tetramethylrhodamine methyl ester (25 nM), and fluorescence was measured using the ImageXpress Micro XL system (Molecular Devices). […] The minimum value after the addition of compound (prior to the addition of FCCP) was taken, and this was expressed as a percentage (using the baseline as 100% and FCCP as 0%) and then normalized to DMSO (100%).
Freshly isolated mouse liver mitochondria were suspended in MSK buffer containing 10 μg/ml rhodamine 123 (dequench mode), at a concentration of 500 μg/ml, and plated in an opaque black 96-well plate. […]

rat cortical neurons = test: Mitochondrial membrane potential (TMRM) in rat cortical neurons; type: cell-based
From the text: The minimum value after the addition of compound (prior to the addition of FCCP) was taken, and this was expressed as a percentage (using the baseline as 100% and FCCP as 0%) and then normalized to DMSO (100%).

TRIM-CypA = TRIM-CypA (Homo sapiens, UniProt P62937+Q6PIZ9)
Sequence of TRIM-CypA (P62937 2-165, one chain of several): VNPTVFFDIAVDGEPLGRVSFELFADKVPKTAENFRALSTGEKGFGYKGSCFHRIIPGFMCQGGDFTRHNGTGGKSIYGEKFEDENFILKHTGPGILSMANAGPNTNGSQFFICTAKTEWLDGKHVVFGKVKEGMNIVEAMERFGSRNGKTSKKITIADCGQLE
Method: Viral supernatant was collected 48 h post-transfection and stored at −80 °C.
To generate CRFK cells stably expressing N-terminally HA-tagged TRIM-CypA from an EXN-based vector, murine leukemia virus (MLV) vector was prepared as above, using pMDG, CMVi MLV gag-pol expression vector, and γ-retroviral expression vector encoding a fusion protein comprising human CypA downstream of owl monkey TRIM5 RBCC (EXN-TRIM-CypA) ([67]). CRFK cells, which are null for TRIM5α activity ([68]), were then transduced with vector, followed by selection of cells in 1 mg/ml G418 (Invitrogen).
Infectivity was measured by flow cytometry 48 h postinfection.

[2] = tested on: splenocytes from MOG 35-55 immunized ABH mice; test: Myelin antigen (MOG 35-55)-induced T cell proliferation; type: cell-based, mouse; conditions: MOG residues 35–55, 5 μg/ml
Method: ABH mice were injected subcutaneously in the flank with 100 μg of myelin oligodendrocyte glycoprotein (MOG) peptide residues 35–55 (Cambridge Research Biochemicals Ltd., Billingham, UK) emulsified in Freund's adjuvant containing 200 μg of Mycobacterium tuberculosis H37Ra (Difco, Becton Dickinson, Oxford, UK) on days 0 and 7 ([69]). Spleens were collected and prepared and analyzed as above except that mitogens were replaced with 5 μg/ml MOG 35–55 peptide, and cells were incubated for 72 h before the addition of tritiated thymidine.

[3] = tested on: T cell proliferative response in draining auricular lymph node; test: In vivo T cell proliferation, oxazolone contact hypersensitivity; design: species or system mouse
Method: The contact sensitizer 4-ethoxymethylene-2-phenyl-2-oxazolin-5-one (oxazolone; Sigma) was dissolved (25 mg/ml) in 4:1 acetone/olive oil. Mice (n = 3/group) received epicutaneous application of either 25 μl of 2.5% oxazolone or acetone/olive oil on the dorsum of the ear on day 0 ([70]). The draining auricular lymph nodes were removed 3 days later, and the induced proliferative response was assessed as described previously. Briefly, 5 × 10^5 cells/well were cultured in RPMI 1640 medium with glutamate (Gibco®, Invitrogen Ltd., Paisley UK), supplemented with 0.5 mM sodium, in round-bottomed 96-well plates overnight at 37 °C in a humidified atmosphere of 5% CO2 in the presence of 1 μCi of [^3H]thymidine (PerkinElmer Life Sciences) per well. DNA synthesis was estimated using β-scintillation counting as above. […] Results are expressed as mean ± S.E. thymidine incorporation counts/min.

[4] = tested on: experimental autoimmune encephalomyelitis; test: Relapsing-progressive EAE in ABH mice (neurological score, RotaRod, neurofilament ELISA); type: in vivo, mouse
Method: Mice were injected subcutaneously with 1 mg of freeze-dried mouse spinal cord homogenate (SCH) in Freund's adjuvant on days 0 and 7 as described previously ([71]). After the initial paralytic disease and subsequent remission, a relapse was induced by a further injection of SCH in Freund's incomplete adjuvant on day 28 to induce a relapse 7 days later ([71]). Studies were randomized, blinded, and powered as described previously ([71]). Neurological scores were graded as 0 = normal, 1 = limp tail, 2 = impaired righting reflex, 3 = hind limb paresis, 4 = complete hind limb paralysis, and 5 = moribund/death ([71]). Results are expressed as mean ± S.E. maximum or minimum neurological score and mean day of onset ± S.D. The clinical scores are presented as the mean daily neurological score ± S.E. Differences in clinical scores were assessed using non-parametric, Mann-Whitney U statistics ([71]). Motor control and coordination were assessed on an accelerating (4–40 rpm, accelerating at 6 rpm/25 s) RotaRod (ENV-575M, Med Associates Inc., St. Albans, VT) as described previously ([71]). This was performed 1 day before induction of relapse and at the termination of the experiment on day 45. RotaRod assessment was performed blinded to treatment. Animals were randomized to vehicle or treatment based on their RotaRod scores. Results are expressed as mean ± S.E. time that animals maintained rotarod activity. Differences in rota activity and quantitative neurofilament ELISA were assessed using Student's t test incorporating tests for equality of variance using Sigmaplot (Systat Software, Inc., San Jose, CA) ([71]).
At the end of the experiment, the spinal cord was removed, and an ELISA for heavy chain neurofilament on spinal cord was performed. Total nerve content of each spinal cord was estimated following calibration against neurofilament protein standards as described previously ([71], [72]).
Neurofilament level as a validated correlate of spinal cord axonal content as determined by histology was determined as follows. […] Tissues were snap-frozen and stored at −80 °C before homogenization. Tissues were homogenized in a glass homogenizer in 1 ml/100 mg of spinal cord tissue wet weight homogenization buffer (0.2 mM PMSF, 1 mM EDTA, 1 mM EGTA, 4 M urea, 10 mM Tris-HCl (Sigma), pH 7.2) plus 1:100 HALT protease inhibitor mixture (Thermo Fisher Scientific) and further homogenized by sonication twice for 10 s (Cole-Parmer Instruments, Vernon Hills, IL). Samples were spun down at 13,000 rpm in a bench top centrifuge (Eppendorf), and the supernatant was collected and stored at −80 °C before neurofilament determination. Samples were thawed on ice, and an ELISA for heavy chain neurofilament was performed. Briefly, a 96-well plate was coated overnight at 4 °C with capture antibody (1:5000; SMI35 anti-neurofilament H, Cambridge Bioscience, Cambridge, UK) in coating buffer (0.15 M Na2CO3, 0.35 M NaHCO3 (Sigma), pH 9.6). Following one wash in wash buffer (150 mM NaCl, 10 mM Tris-HCl, 0.1% Tween 20 (Sigma), pH 7.5), nonspecific binding was blocked by incubation with 5% bovine serum albumin (Sigma) in wash buffer for 1 h at room temperature. Following a wash step, samples and standards (porcine neurofilament heavy chain, Chemicon International) were diluted in wash buffer with 1% bovine serum albumin and incubated on the plate for 1 h at room temperature. Following five wash steps, the detector antibody was applied (1:1000 rabbit anti-NF200, Sigma) and incubated for a further 1 h at room temperature. The plate was washed five times, and the reporter antibody was applied (1:1000 swine anti-rabbit HRP conjugate, DAKO). Following a final five washes, tetramethylbenzidine substrate (Sigma) was applied, and color production was measured on a BioTek Synergy HT plate reader at 450 nm.

[5] = molecular target: Ca2+-mediated PT pore formation (Mus musculus, UniProt Q99KR7); conditions: liver mitochondria
Sequence of Ca2+-mediated PT pore formation (Q99KR7 30-206): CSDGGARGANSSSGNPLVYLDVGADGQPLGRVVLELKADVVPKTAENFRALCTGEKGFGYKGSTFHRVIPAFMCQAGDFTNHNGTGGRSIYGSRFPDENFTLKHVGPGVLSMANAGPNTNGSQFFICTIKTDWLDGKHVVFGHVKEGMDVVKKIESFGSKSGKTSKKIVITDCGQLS
Method: Briefly, C57BL/6J WT or CypD^−/− ([63]) male mice of 3–6 months were sacrificed by cervical dislocation, and their liver was removed and placed immediately into ice-cold isolation buffer (250 mM mannitol, 5 mM HEPES, 0.5 mM EGTA, pH 7.4). At 4 °C, the liver was rinsed in PBS to remove excess blood, and any fat and connective tissue was eliminated. PBS was then replaced with isolation buffer containing 1 mM PMSF, and the liver was chopped into pieces (∼2 mm in length). Tissue was then homogenized in this solution until no solid matter remained and then centrifuged at 800 × g for 10 min at 4 °C. […] Protein levels were quantified using a Thermo Scientific BCA protein quantification assay, as per the manufacturer's instructions.
Isolated mitochondria were resuspended (500 μg of protein/ml) in MSK buffer (75 mM mannitol, 25 mM sucrose, 5 mM potassium phosphate monobasic, 20 mM Tris-HCl, 100 mM KCl, and 0.1% bovine serum albumin, pH 7.4) supplemented with 10 mM succinate, 1 μM rotenone, and 1 μM Fluo5N. […] Compounds were incubated for 10 min before the plate was assayed in a Fluostar Optima plate reader, using excitation/emission filters at 480/520 nm; CaCl2 was injected approximately every 6.5 min for 80 min (12 total injections, final concentration of 75 μM). […] Percentage inhibition for each [compound] was then calculated as the percentage of the corresponding value for the untreated condition. […]

CypA = CypA (Homo sapiens, UniProt P62937); test: Fluorescence polarization cyclophilin binding assay, CypA; conditions: probe 45 nM, enzyme 40 nM
Sequence of CypA (P62937 whole entry, species assumed): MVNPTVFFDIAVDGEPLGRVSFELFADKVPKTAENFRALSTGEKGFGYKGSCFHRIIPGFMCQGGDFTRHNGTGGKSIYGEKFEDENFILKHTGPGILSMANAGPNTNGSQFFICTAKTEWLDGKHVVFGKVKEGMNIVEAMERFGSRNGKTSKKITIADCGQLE
From the text: Fluorescence polarization (FP) is inversely related to the molecular rotation of the fluorophore. Fluorophores linked to small molecules tumble faster and emit less polarized fluorescence than fluorophore-small molecules bound to proteins. FP is a convenient technique to measure affinity of ligands to cyclophilins ([59], [60]).
(§1) Titration of a single probe concentration against different enzyme concentrations was used to determine the dissociation constant (Kd). From this we also determined the enzyme concentration that would give a high enough polarization signal to measure binding affinities.
(§2) At least three replicates were used for each experiment. The percentage of DMSO in the total solution should remain lower than 1%. […] Measurements were taken after gain adjustment of control sample and 30-min incubation with a xenon flash light with filter settings for 485-nm excitation and 520-nm emission.

K133I CypD = K133I CypD (Homo sapiens, UniProt P30405, K175I); test: Fluorescence polarization cyclophilin binding assay, CypD; conditions: probe 45 nM, enzyme 40 nM
Sequence of K133I CypD (P30405 43-207 K175I): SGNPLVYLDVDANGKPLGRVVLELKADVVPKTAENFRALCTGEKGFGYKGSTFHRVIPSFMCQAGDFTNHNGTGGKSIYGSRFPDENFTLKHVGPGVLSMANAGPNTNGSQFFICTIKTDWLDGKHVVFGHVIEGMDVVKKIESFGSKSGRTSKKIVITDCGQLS
Method: as §1, §2

[6] = before treatment (baseline of the JW47 group)

SMILES | concentration up to which mitochondrial membrane potential, oxygen consumption and ATP production were not affected [1] | effect on mitochondria in cortical neurons (rat cortical neurons; 40 nM) | effect on mitochondria in cortical neurons (rat cortical neurons; 1 μM) | concentration that inhibited neuronal mitochondrial membrane potential (rat cortical neurons; rat cortical neurons) | rescue of HIV-1 infectivity in TRIM-CypA cells (TRIM-CypA) | immunosuppressive activity in antigen-driven proliferation assay [2] | effect on T cell response, contact hypersensitivity model ([3]; 0.1 mg/kg intraperitoneally daily) | effect on T cell response, contact hypersensitivity model ([3]; 1 mg/kg intraperitoneally daily) | effect on T cell response, contact hypersensitivity model ([3]; 10 mg/kg intraperitoneally daily) | incidence of disease (relapse) ([4]; 1 mg/kg intraperitoneally daily from day 33) | onset of induced relapse ([4]; 1 mg/kg intraperitoneally daily, SCH injection day 28, mean ± S.D.) | rotorod activity during the second remission after relapse ([4]; 1 mg/kg intraperitoneally daily, day 45) | minimal neurological score during the second remission ([4]; 1 mg/kg intraperitoneally daily, p < 0.001 vs vehicle) | maximal severity disease score ([4]; 1 mg/kg intraperitoneally daily, score 0–5, mean ± S.E.) | loss of nerves and axons within the spinal cord, neurofilament ELISA ([4]; 1 mg/kg intraperitoneally daily, vs vehicle) | minimal clinical score during the first remission [4, 6] | rotorod activity on day 27 during the first remission [4, 6] | effect on CRC, mitochondria from WT mice [5] | Ki (CypA) | Ki (K133I CypD)
CC[C@@H]1NC(=O)[C@H]([C@H](O)[C@H](C)C/C=C/CCC[n+]2cccc3ccccc32)N(C)C(=O)[C@H](C(C)C)N(C)C(=O)[C@H](CC(C)C)N(C)C(=O)[C@H](CC(C)C)N(C)C(=O)[C@@H](C)NC(=O)[C@H](C)NC(=O)[C@H](CC(C)C)N(C)C(=O)[C@H](C(C)C)NC(=O)[C@H](CC(C)C)N(C)C(=O)CN(C)C1=O [JW47, [Gly-(1S,2R,E)-8-quinolinium-1-hydroxy-2-methyloct-4-ene]^1 CsA] | up to 200 nM | not affected | significantly depolarized | 1000 nM | no activity | markedly less immunosuppressive activity compared with CsA | no effect | no effect | inhibited the T cell response | 14 of 14 | 34.5 ± 0.7 days | 135.0 ± 42.9 s | 1.4 ± 0.3 | 3.9 ± 0.1 | lost significantly (p < 0.01) fewer nerves | 0.6 ± 0.1 | 168.8 ± 21.8 s | significantly increased |  | 
C/C=C/C[C@@H](C)[C@@H](O)[C@H]1C(=O)N[C@@H](CC)C(=O)N(C)[C@H](Cc2ccc(C(=O)O)cc2)C(=O)N(C)[C@@H](CC(C)C)C(=O)N[C@@H](C(C)C)C(=O)N(C)[C@@H](CC(C)C)C(=O)N[C@@H](C)C(=O)N[C@H](C)C(=O)N(C)[C@@H](CC(C)C)C(=O)N(C)[C@@H](CC(C)C)C(=O)N(C)[C@@H](C(C)C)C(=O)N1C [SmBzCsA] |  |  |  |  |  |  |  |  |  |  |  |  |  |  |  |  |  |  | 236 ± 8.4 nM | 202 ± 14.1 nM
